target: T1, Acetylcholinesterase (Bos taurus, UniProt P23795); assay: Inhibitory constant against fetal bovine serum (FBS) acetylcholinesterase
T1 sequence (P23795 whole entry): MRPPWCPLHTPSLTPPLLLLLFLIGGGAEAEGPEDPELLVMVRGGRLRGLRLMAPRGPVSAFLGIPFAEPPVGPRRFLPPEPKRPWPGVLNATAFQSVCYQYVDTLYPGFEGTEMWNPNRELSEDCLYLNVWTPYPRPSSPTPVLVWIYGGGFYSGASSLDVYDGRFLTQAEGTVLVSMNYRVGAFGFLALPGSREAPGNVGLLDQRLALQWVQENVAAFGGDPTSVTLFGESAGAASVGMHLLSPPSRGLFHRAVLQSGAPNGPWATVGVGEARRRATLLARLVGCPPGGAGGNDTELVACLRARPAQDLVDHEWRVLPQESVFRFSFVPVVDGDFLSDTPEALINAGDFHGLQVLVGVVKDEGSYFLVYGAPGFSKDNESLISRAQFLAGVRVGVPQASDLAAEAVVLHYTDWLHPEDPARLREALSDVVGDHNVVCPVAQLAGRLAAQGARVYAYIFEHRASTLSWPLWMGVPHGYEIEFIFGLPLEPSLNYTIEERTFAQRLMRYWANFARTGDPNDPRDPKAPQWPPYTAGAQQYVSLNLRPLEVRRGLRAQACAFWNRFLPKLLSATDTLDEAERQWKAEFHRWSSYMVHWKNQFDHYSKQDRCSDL

Row | SMILES | Ki [nM]
1 | C/C=C1\[C@H]2C=C(C)C[C@]1(N)c1ccc(=O)[nH]c1C2 [HUPERZINE A] | 24
2 | CC1=CC2Cc3nc(O)ccc3C3(C1)NCC(C)=C23 (stereo not given) | 220
3 | CC1=C[C@H]2Cc3[nH]c(=O)ccc3[C@]3(C1)NCCC[C@H]23 [HUPERZINE B] | 794
4 | CC1=CC2Cc3[nH]c(=O)ccc3C3(C1)NCCC(C)=C23 (stereo not given) | 2050
5 | CCC1=C2C3C=C(C)CC2(NC1)c1ccc(O)nc1C3 (stereo not given) | 400
